Legend:
[1] = Stability test in liver microsomes (rat); type: in vitro ADME; conditions: rat liver microsomes, 1 μM compound, 30 min
Source text: (§1) Example 5 Stability Test in Liver Microsomes
(§2) Both male CD-1 mouse pooled liver microsomes and male SD rat pooled liver microsomes were purchased from BioreclamationIVT Corporation, USA.
(§3) Phenacetin, glucose-6-phosphate dehydrogenase (G-6-PDH) and nicotinamide adenine dinucleotide phosphate (NADP) were all purchased from Sigma-Aldrich Corporation, USA. Glucose-6-phosphate (G-6-P) was purchased from Shanghai Eybridge Chemical Technology Co., Ltd.
(§4) Ten mM test compound stock solution: a certain amount of test compound was weighed, and dissolved with an appropriate volume of DMSO to prepare a stock solution with a concentration of 10 mM for use.
(§5) Reaction stopping solution: an appropriate amount of internal standard compound phenacetin was dissolved in acetonitrile to prepare a reaction stopping solution with a concentration of 1000 ng/mL for use at room temperature.
(§6) The test compound stock solution was diluted with an organic solvent (usually a mixture of acetonitrile, methanol and water with various ratios, depending on the solubility of the compound, if necessary, 1 N hydrochloric acid or 1 N sodium hydroxide would be added to facilitate solubilization) to the 0.1 mM (the final concentration of the compound in the reaction system was 1 μM) and the concentration percentage of the organic solvents in the incubation system no more than 1% (wherein the percentage of DMSO was required to be no more than 0.1%). An appropriate amount of 100 mM NADP, 500 mM G-6-P and 100 Unit/mL G-6-PDH were mixed and diluted with ultrapure water (the final system contains 1 mM NADP, 5 mM G-6-P and 1 Unit/mL G-6-PDH), pre-incubated in a 37° C. water bath for 10 minutes and then placed on ice for use as a NADPH regeneration solution. 20 mg/mL liver microsomes solution and 200 mM phosphate buffer was mixed, and diluted with ultrapure water to give a liver microsomes solution containing 2.5 mg/mL liver microsomes (the final concentration of the reaction system is 0.5 mg/mL) and 50 mM phosphate buffer. The diluted liver microsomes solution was mixed with 0.1 mM compound solution, a mixture of 100 mM EDTA, 300 mM MgCl2 solution, 200 mM phosphate buffer (the final system was 3 mM MgCl2, 1 mM EDTA and 50 mM phosphate buffer) and water in an appropriate volume was added. Finally, the NADPH regeneration solution was added, then the reaction solution was placed in a 37° C. water bath to start the reaction (the reaction time was 30 minutes), and the reaction was stopped by adding the ice-cold acetonitrile reaction stopping solution containing the internal standard. The 0-minute sample was not incubated in a 37° C. water bath, and its difference from the 30-minute sample further lies in that the ice-cold acetonitrile reaction stopping solution containing the internal standard was added first, and then the NADPH regeneration solution was added. The sample added with the reaction stopping internal standard solution was vortexed and mixed well, and then centrifuged at 4400 rpm for 10 minutes. The supernatant was taken and diluted ten times with 50% methanol for LC-MS/MS analysis.
(§7) LC-MS/MS was used to determine the concentration of the compound in the sample. The percentage of the remaining compound after 30 minutes of incubation comparing with that in the 0-minute sample was calculated using the peak area ratio of the compound to the internal standard as an indicator, to evaluate the metabolic stability of the compound.
(§8) Instrument: API4500, API4000 or LTQ Mass Spectrometer; the liquid phase is UHPLC system (Shimadzu LC-30 AD, model Nexra X2) including liquid delivery unit, column thermostat, detector and autosampler; or Agilent 1200 Binary Pump series HPLC and CTC Autosampler.
(§9) Chromatographic column: Waters XSELECT Hss T3 C18 (2.5 μm, 2.1×50 mm) or […] (5 μm, 2.0×50 mm)
(§10) Mobile phase: • A: water with 0.1% FA (formic acid) (with or without 0.1% ACN (acetonitrile)) • B: acetonitrile with 0.1% FA (formic acid).

[2] = Rat arthritis model induced by type II collagen (CIA); type: in vivo; conditions: 4 mg/kg oral once a day, CIA rats
Procedure: Example 9 Therapeutic Effect of the Compound of the Present Invention on a Rat Arthritis Model Induced by Type II Collagen
An appropriate amount of bovine type II collagen (CII, Chondrex (Redmond, WA, USA), Cat #20021) was weighed and dissolved in 0.1 mole of acetic acid (SPGC Sinopharm Chemical Reagent Co., Ltd (Shanghai, P.R.China), Cat #: 10000218.), which was formulated into a solution with a concentration of 6 mg/mL, stirred at 4° C. overnight, and added with an equal volume of Freund's incomplete adjuvant (Sigma-Aldrich. (St. Louis, MO, USA), Cat #: SLBW0366.), fully emulsified to prepare an emulsion with a CII concentration of 3 mg/mL. […]
The paw volume was measured on day 8 after immunization, and the left and right hind paw volumes (V) were measured every day after the paw volume increase was detected. […]
The area under the curve (AUC) of the average paw volume change is the area under the curve of the arthrosis score change calculated by the trapezoid method, and the calculation formula is: AUCpaw volume=½×(APSd1+APSd2)λ(d2−d1)+½×(APSd2+APSd3)×(d3-d2)+. . . +½×(APSdn+APSd(n-1))×(dn−dn-1)
ED50 is calculated by XLfit software according to the AUC inhibition ratio of the area under the curve of the average paw volume change. […]

[3] = Stability test in liver microsomes (mouse); type: in vitro ADME; conditions: mouse liver microsomes, 1 μM compound, 30 min
Source text: as §1, §2, §3, §4, §5, §6, §7, §8, §9, §10

[4] = Study on in vivo pharmacokinetics in mice; design: species or system mouse; conditions: mice, intragastric, 10 mg/kg
Source text: Example 6 Study on In Vivo Pharmacokinetics in Mice
Solutol HS15 was purchased from BASF, Germany, ethanol (anhydrous) was purchased from Nanjing Chemical Reagent Co., Ltd., physiological saline was purchased from Huayu (Wuxi) Pharmaceutical Co., Ltd., dimethyl sulfoxide (DMSO) and sodium carboxymethyl cellulose 800-1200 (CMC-Na) were purchased from Sinopharm Chemical Reagent Co., Ltd.
Preparation of ethanol/Solutol mixed solution (1:1, v/v): taking an appropriate amount of Solutol HS15 in a centrifuge tube and placing in a 37° C. water bath until dissolved, placing on the bench top to room temperature, taking 1 mL of Solutol in a centrifuge tube containing 1 mL of ethanol and mixing well to obtain the mixed solution.
Taking an appropriate amount of stock solution and placing in a blank centrifuge tube, adding an appropriate amount of ethanol/Solutol mixed solution prepared in advance, vortexing, then adding an appropriate amount of physiological saline, and mixing well until a transparent liquid.
3. Administration to Animals and Sample Collection:
Male ICR mice were purchased from Shanghai Lingchang Biotechnology Co., Ltd. 18 mice were randomly divided into intravenous administration group and intragastric administration group. The mice were fasted overnight before administration. The mice were withheld food but allowed to access water freely within 4 hours after administration, and allowed to freely access food and water after 4 hours. After anesthesia with isoflurane, blood was collected from the retroorbital venous plexus and placing in an centrifuge tube containing anticoagulant, and the centrifuge tube was stored in an box containing wet ice until the plasma was centrifuged.
The plasma samples were pre-treated and then analyzed by liquid chromatography-tandem mass spectrometry (LC-MS/MS), the instrument model was API5500. The analytical chromatographic column was Waters XSELECT HSS T3 C18 column (50×2.1 mm, 2.5 μm). In the mobile phases, deionized water containing 0.1% formic acid and 0.1% acetonitrile was used as the aqueous phase and acetonitrile containing 0.1% formic acid was used as the organic phase. The concentrations of the compound in the samples were determined as follows. Firstly, a standard curve was established, and the peak area ratios of the compound 19 to the internal standard in the standard curve were used as indexes. The theoretical concentrations of compound 19 and the peak area ratios of compound 19 to the internal standard were fitted with a quadratic regression equation to obtain the regression equation. The sample concentrations were calculated by measuring the peak area ratio of the compound of the test sample to the internal standard according to the standard curve.

SMILES: C[C@H]1CN(C2COC2)CCN1c1ccc(Nc2cc(-c3ccnc(N4CCn5c(cc6c5CC(C)(C)C6)C4=O)c3CO)cn(C)c2=O)nc1 [GDC-0853, fenebrutinib, reference compound]
- RLM, percentage of remaining compound after 30 minutes of incubation [1]: 81.0%
- paw volume compared with vehicle control group [2]: significantly reduced
- MLM, percentage of remaining compound after 30 minutes of incubation [3]: 76.3%
- T1/2 [4]: 1.5 h
- C8 h ([4]; plasma at 8 h): 143 ng/mL

Reference: patent US12070457B2, “Substituted pyridines, pyridazines, pyrimidines, and 1,2,3-triazines as bruton's tyrosine kinase inhibitors” (HUTCHISON MEDIPHARMA LIMITED, priority 2020, dated 2024)
